These results are taken from publication PMC8775487, “Insights into Asparaginase from Endophytic Fungus Lasiodiplodia theobromae: Purification, Characterization and Antileukemic Activity” (International Journal of Environmental Research and Public …, 2022).

The subject of this test is T1, purified asparaginase from L. theobromae.
T1 construct: native extracellular enzyme purified from culture filtrate of asparagine-induced endophytic fungus (acetone, Q-FF, Sephadex G-100); about 70 kDa on SDS-PAGE
The test is described as follows: direct Nesslerization of released ammonia; Lineweaver-Burk and Michaelis-Menten plots. The settings on record: asparagine 0-20 mM; standard assay pH 7, 37 °C. The format is biochemical, Lasiodiplodia theobromae. The source says: direct Nesslerization of released ammonia; Lineweaver-Burk and Michaelis-Menten plots on purified asparaginase from L. theobromae | Michaelis constant Km and maximum velocity Vmax of the purified asparaginase from L. theobromae were […]

SMILES strings stand for the structures.

One may read the Km as the substrate concentration at which the rate is half of its maximum. With `NC(=O)C[C@H](N)C(=O)O` [asparagine], the Km was 9.37 µM.
